Test results as given in US20150376225A1, “NOVEL COMPOUNDS OF 11BETA-HYDROXY-STEROIDS FOR USE IN MITOCHONDRIA BIOGENESIS AND DISEASES ASSOCIATED WITH MITOCHONDRIAL DYSFUNCTION OR DEPLETION” (SPHAERA PHARMA PVTD. LTD., priority 2013, published 2015).

Legend:
BCAEC = experiment: 3-(4,5-Dimethylthiazol-2-yl)-2,5-diphenyltetrazolium bromide (MTT) assay, mitochondrial function (MTT/Methylene Blue ratio); assay type: cell-based, bovine; settings: treated for 48 hours
Protocol: 3-(4,5-Dimethylthiazol-2-yl)-2,5-diphenyltetrazolium bromide (MTT) assay
6,000 BCAEC were seeded into clear 96-well flat bottom plates at 100 μl per well. After starvation, cells were treated for 48 hours with the corresponding compounds. Compounds were changed every 12 and 24 hours (with 100 μl per well of fresh medium). Following the treatment medium was aspirated from plates, and washed once with 100 μl HBSS, subsequently 100 μl per well 0.5 mg/ml MTT in phenol red-free DMEM was added. Plates were incubated for 1 hour at 37° C., and this was followed by aspiration of MTT solution, addition of 100 μl per well DMSO to dissolve formazan crystals, and incubation at 37° C. for 15 minutes. Mitochondrial function was quantified by absorbance was measured at 540 nm with background substraction at 670 nm using. After MTT absorbance measure, media was removed and cells quantify in each well as described elsewhere (Oliver et al, 1989) with some modifications. In brief, 100 μl of 10% formol saline to each well was added, and incubated at 4° C. for 24 hours. Next, formol solution was removed from the wells and 100 μl of filtered 0.1% (w/v) Methylene Blue in 0.01 M borate buffer (pH 8.5) was added to each well. After 30 minutes, excess dye was removed and washed off 3 times with 0.01 M borate buffer (pH 8.5). […] The plates were then gently shaken and incubated for 15 minutes under a bench rocker. Absorbance was measured at 650 nm. The MTT/Methylene Blue ratio was used to quantify the mitochondrial function. Oliver M H, Harrison N K, Bishop J E, Cole P J, Lauren G J. A rapid and convenient assay for counting cells cultured in microwell plates: application for assessment of growth factors. J Cell Sci. 1989, 3:513-8.

[1] = system: oxidative phosphorylation complex I; experiment: Slot blot method, complex I normalized to GAPDH; assay type: cell-based, bovine
Protocol: Following treatment, bovine aortic endothelial cells grown in 12 well plates are scrapped in 50 μl of lysis buffer (1% Triton X-100, 20 mm Tris, 140 mm NaCl, 2 mm EDTA, and 0.1% SDS) with protease and phosphatase inhibitor cocktails (P2714 and P2850, Sigma-Aldrich) supplemented with 0.15 mm PMSF, 5 mm Na3VO4 and 3 mm NaF. Homogenates are passed through an insulin syringe five times, sonicated for 30 min at 4° C. and centrifuged (12,000 g) for 10 min. The total protein content is measured in the supernatant using the Bradford method. A total of 10-20 μg of protein are loaded into a pre-assembled slot blot apparatus to be transferred under vacuum onto polyvinyl membranes, incubated for 1 h in blocking solution (5% non-fat dry milk in TBS plus 0.1% Tween 20 (TBS-T)), followed by a overnight incubation at 4° C. with primary antibodies (oxidative phosphorylation complex I or GAPDH). Primary antibodies are diluted in TBS-T plus 5% non-fat dry milk. Membranes are washed (3× for 5 min) in TBS-T and incubated 1 h at room temperature in the presence of HRP-conjugated secondary antibodies diluted in blocking solution. Membranes are again washed 3 times in TBS-T, and the immunoblots developed using an ECL Plus detection kit (Amersham-GE). Band intensities are digitally quantified using ImageJ software (http://www.nih.gov). Complex I values are normalized for loading differences using GAPDH after stripping and reprobing of the membrane. All Western blot images to be obtained will be within the linear range of X-ray film to ensure computer-assisted densitometry accuracy.

AMPK = AMPK activation, cell based ELISA in Hep G2 cells; settings: 1 h incubation, DMSO control as 100%
Protocol: AMPK Activation Protocol:
AMPK activation potential of the compounds was evaluated using cell based ELISA.
Hepatoma (Hep G2) liver cells were maintained in a T 75 culture flask-containing 25 mM DMEM+10% fetal calf serum. The cells were maintained in a T 75 culture flask-containing medium (DMEM+10% fetal calf serum). On reaching a confluence of 70 to 80%, the cells were seeded in a 96 well plate at a density of 40,000 cells per well in 25 mM DMEM+10% FCS medium. The plates were then incubated at 37° C. with 5% CO2 for 24 hours. Various concentrations of drugs were prepared in DMSO and diluted to required concentration with the medium and incubated at 37° C. with 5% CO2 for 30 min and 1 h for Epicatechin analogs and 11-BHP analogs respectively. Metformin was used as positive control. Cells were fixed with 4% formaldehyde for 30 minutes at room temperature and washed three times with PBS containing 0.1% Triton X-100. Endogenous peroxidase was quenched with 1% H2O2 in PBS-T (0.1% Tween 20) for 30 minutes and washed three times in PBS-T. Cells were blocked with 1% BSA in PBS-T for 1 hour.

Structure (SMILES)	MTT Assay (BCAEC)	Slot Blot Assay [1]	also measured
CC(=O)[C@H]1CC[C@H]2[C@@H]3CCC4=CC(=O)CC[C@]4(C)[C@H]3[C@@H](O)C[C@]12C [Compound 1007, (8S,9S,10R,11S,13S,14S,17S)-17-acetyl-11-hydroxy-10,13-dimethyl-6,7,8,9,10,11,12,13,14,15,16,17-dodecahydro-1H-cyclopenta[a]phenanthren-3(2H)-one]	+ (+ indicates >110%)	–	–
CC(O)[C@H]1CC[C@H]2[C@@H]3CC=C4C[C@@H](O)CC[C@]4(C)[C@H]3[C@@H](O)C[C@]12C (stereo partly drawn) [Compound 1003, (3S,8S,9S,10R,11S,13S,14S,17S)-17-(1-hydroxyethyl)-10,13-dimethyl-2,3,4,7,8,9,10,11,12,13,14,15,16,17-tetradecahydro-1H-cyclopenta[a]phenanthrene-3,11-diol]	+ (+ indicates >110%)	–	–
Cc1noc([C@H]2CC[C@H]3[C@@H]4CCC5=CC(=O)CC[C@]5(C)[C@H]4[C@@H](O)C[C@]23C)n1 [Compound 1012, (8S,9S,10R,11S,13S,14S,17S)-11-hydroxy-10,13-dimethyl-17-(3-methyl-1,2,4-oxadiazol-5-yl)-6,7,8,9,10,11,12,13,14,15,16,17-dodecahydro-1H-cyclopenta[a]phenanthren-3(2H)-one]	–	+ (+ indicates >150% HCAEC)	–
CC1([C@H]2CC[C@H]3[C@@H]4CC=C5C[C@@H](O)CC[C@]5(C)[C@H]4[C@@H](O)C[C@]23C)OCCO1 [Compound 1001, (3S,8S,9S,10R,11S,13S,14S,17S)-10,13-dimethyl-17-(2-methyl-1,3-dioxolan-2-yl)-2,3,4,7,8,9,10,11,12,13,14,15,16,17-tetradecahydro-1H-cyclopenta[a]phenanthrene-3,11-diol]	+ (+ indicates >110%)	–	–
CC(=O)[C@H]1CC[C@H]2[C@@H]3CC=C4C[C@@H](O)CC[C@]4(C)[C@H]3[C@@H](O)C[C@]12C [Compound 1002, 1-((3S,8S,9S,10R,11S,13S,14S,17S)-3,11-dihydroxy-10,13-dimethyl-2,3,4,7,8,9,10,11,12,13,14,15,16,17-tetradecahydro-1H-cyclopenta[a]phenanthren-17-yl)ethanone]	–	+ (+ indicates >150% HCAEC)	–
COC(=O)[C@H]1CC[C@H]2[C@@H]3CC=C4C[C@@H](O)CC[C@]4(C)[C@H]3[C@@H](O)C[C@]12C [Compound 1004, (3S,8S,9S,10R,11S,13S,14S,17S)-methyl 3,11-dihydroxy-10,13-dimethyl-2,3,4,7,8,9,10,11,12,13,14,15,16,17-tetradecahydro-1H-cyclopenta[a]phenanthrene-17-carboxylate]	–	+ (+ indicates >150% HCAEC)	–
CC[C@H]1CC[C@H]2[C@@H]3CC=C4C[C@@H](O)CC[C@]4(C)[C@H]3[C@@H](O)C[C@]12C [Compound 1009, (3S,8S,9S,10R,11S,13R,14S,17S)-17-ethyl-10,13-dimethyl-2,3,4,7,8,9,10,11,12,13,14,15,16,17-tetradecahydro-1H-cyclopenta[a]phenanthrene-3,11-diol]	–	+ (+ indicates >150% HCAEC)	–
C[C@]12CCC(=O)C=C1CCC1C2[C@@H](O)C[C@]2(C)/C(=N/O)CCC12 (stereo partly drawn) [Compound 1024, (10R,11S,13S,E)-11-hydroxy-17-(hydroxyimino)-10,13-dimethyl-1,2,6,7,8,9,10,11,12,13,14,15,16,17-tetradecahydro-3H-cyclopenta[a]phenanthren-3-one]	–	–	% activation pAMPK at 1 nM (AMPK): 133%
